Results on eight molecules are retold here after PMC6009888, “Design, synthesis, and pharmacological evaluation of 2-amino-5-nitrothiazole derived semicarbazones as dual inhibitors of monoamine oxidase and cholinesterase: effect of the size of aryl binding site” (Journal of Enzyme Inhibition and Medicinal Chemistry, 2017).

The test system of data set [1] is MAO-A. The arrangement: method as in PMID 12553895, PMID 23325700, PMID 27135466. The settings on record: Figure 1, lead semicarbazone inhibitors; ref [47–50]; cited from earlier work.
Data set [2] deals with MAO-B. The arrangement: method as in PMID 12553895, PMID 23325700, PMID 27135466. The settings on record: Figure 1, lead semicarbazone inhibitors; ref [47–50]; cited from earlier work.
Another data set relates to AChE. Further details: method as in PMID 12553895, PMID 23325700, PMID 27135466. To be noted: Figure 1, lead semicarbazone inhibitors; ref [47–50]; cited from earlier work.
Data set [3] addresses T1, MAO-A (Rattus norvegicus, UniProt P21396).
T1 construct: employing crude rat brain mitochondrial suspension; from tissue; host or cells: brain mitochondria of adult Wistar rats
T1 sequence (P21396 1-526): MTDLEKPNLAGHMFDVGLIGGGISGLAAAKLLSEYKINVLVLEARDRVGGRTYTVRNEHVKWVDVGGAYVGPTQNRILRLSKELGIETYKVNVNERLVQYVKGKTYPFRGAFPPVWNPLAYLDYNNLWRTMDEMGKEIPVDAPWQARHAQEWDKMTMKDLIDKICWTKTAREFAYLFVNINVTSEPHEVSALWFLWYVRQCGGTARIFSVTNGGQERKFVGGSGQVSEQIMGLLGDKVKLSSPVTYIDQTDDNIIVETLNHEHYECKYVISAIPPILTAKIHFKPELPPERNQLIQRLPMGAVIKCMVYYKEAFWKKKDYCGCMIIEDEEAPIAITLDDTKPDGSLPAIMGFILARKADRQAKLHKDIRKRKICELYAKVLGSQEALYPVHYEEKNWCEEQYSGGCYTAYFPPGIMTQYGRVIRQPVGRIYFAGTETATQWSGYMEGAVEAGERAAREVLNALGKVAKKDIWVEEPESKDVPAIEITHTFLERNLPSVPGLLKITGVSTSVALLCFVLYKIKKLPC
To be noted: reference inhibitors; ref [50]; read-out: MAO-A In vitro IC50 (µM) ± SEM; cited from earlier work.

In data set [4] the target is T2, MAO-B (Rattus norvegicus, UniProt P19643).
T2 construct: employing crude rat brain mitochondrial suspension; from tissue; host or cells: brain mitochondria of adult Wistar rats
T2 sequence (P19643 1-520): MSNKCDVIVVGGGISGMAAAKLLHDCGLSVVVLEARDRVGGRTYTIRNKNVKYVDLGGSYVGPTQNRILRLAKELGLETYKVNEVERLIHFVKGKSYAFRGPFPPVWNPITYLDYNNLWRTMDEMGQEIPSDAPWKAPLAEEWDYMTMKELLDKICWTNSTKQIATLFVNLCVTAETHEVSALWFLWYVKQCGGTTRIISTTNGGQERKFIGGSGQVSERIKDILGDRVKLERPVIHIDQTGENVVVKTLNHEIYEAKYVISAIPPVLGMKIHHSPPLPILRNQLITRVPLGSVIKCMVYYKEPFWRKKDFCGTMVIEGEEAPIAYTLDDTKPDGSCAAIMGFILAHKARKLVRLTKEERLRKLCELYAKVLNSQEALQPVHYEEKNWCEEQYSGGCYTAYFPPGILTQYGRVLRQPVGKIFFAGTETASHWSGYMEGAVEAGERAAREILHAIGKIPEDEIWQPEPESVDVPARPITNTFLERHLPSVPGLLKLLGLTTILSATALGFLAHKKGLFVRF
The arrangement: method as in PMID 27135466. To be noted: reference inhibitors; ref [50]; read-out: MAO-B In vitro IC50 (µM) ± SEM; cited from earlier work.

In data set [5] the target is T1, MAO-A. Description: In vitro MAO-A inhibition assay (rat brain mitochondria, serotonin substrate). The format is biochemical. The settings on record: rat brain mitochondria, serotonin substrate, mean ± SEM, triplicate; read-out: MAO-A In vitro IC50 (µM) ± SEM. On the procedure:
(§1) Rat brain mitochondria were used as a source of MAO isoforms. All operations were carried out at 4 °C[50]. Male and female adult Wistar rats weighing 200–220 g were decapitated. All brains were rapidly removed and homogenised with a Potter–Elvehjem homogeniser in cold 0.32 M sucrose and 50 mM Tris-HCl, pH 8.2 (10:1, v/w). The homogenate was centrifuged twice at 1000 g for 5 min at 4 °C. The resulting supernatant was centrifuged at 20,000 g for 20 min. The mitochondrial pellet obtained was suspended in 100 mM sodium phosphate buffer, pH 7.4 (4:1, v/w), fractionated in plastic vials to 500 µl samples and stored at −80 °C. Before use, mitochondria were diluted with 100 mM sodium phosphate buffer to give a working solution of 0.80 mg of protein per millilitre.
(§2) The experiments were carried out under all the suitable laboratory conditions. […] An aliquot was made to contain mixture of 55 µl mitochondrial suspension (0.80 mg of protein/ml), 90 µl 50 mM Tris-HCl buffer, pH 8.2 and 30 µl solubilising solution (control or inhibitor solution at five different concentrations). The reaction was initiated by adding 25 µl of serotonin (4 mM, substrate for MAO-A) and 25 µl benzylamine (0.1 M, substrate for MAO-B) for the determination of MAO-A and MAO-B activity, respectively. The mixture was incubated at 37 °C for 30 min and the reaction was stopped by the addition of 50 µl of 1 N HCl. The absorbance associated with the production of 5-hydroxyindolacetic acid was measured at 280 nm for the estimation of MAO-A while for MAO-B estimation, the absorbance was measured at 250 nm due to the formation of benzaldehyde. All the assays were performed in triplicate. Control experiments were carried out without inhibitor and blanks were run without mitochondrial suspension.
(§3) Data are expressed as mean ± standard error mean (SEM) of experiments performed in triplicate.
(§4) 0, 15, 30 and 60 min at 37 °C in Tris-HCl buffer (50 mM, pH 8.2). […] The reactions were further incubated at 37 °C for a further 15 min and the residual enzyme activities were measured and the bar graphs were constructed. All measurements were carried out in triplicate and are expressed as mean ± SEM.

Data set [6] has as its target T2, MAO-B. Description: biochemical. To be noted: for SI (selectivity index for MAO-B): ratio of experimental IC50(MAO-A)/IC50(MAO-B). On the procedure: as §1, §2, §3, §4
For another data set, the target named is T3, rat brain AChE (Rattus norvegicus, UniProt P37136).
T3 construct: the resulting clear supernatants obtained were used as enzyme sources; from tissue; host or cells: rat brain cortex homogenate, 10,000 g supernatant
Description: biochemical. The format is biochemical. To be noted: for IC50: rat brain AChE, ACTI substrate, mean ± SEM, triplicate, read-out: AChE In vitro IC50 (µM) ± SEM. The procedure:
Rat brain was used as a source of AChE enzyme. Rats were separately decapitated, the brain cortices quickly removed, weighed and homogenised in cold 10 mM Tris-HCl buffer, pH 7.2, containing 160 mM sucrose. The homogenates were centrifuged at 10,000 g for 10 min at 4 °C, and the resulting clear supernatants obtained were used as enzyme sources that were divided into aliquots and stored at −20 °C.
(§5) About 30 µl of enzyme sample (AChE) was added to 60 µl of 20 mM sodium phosphate buffer (pH 7.4) and were incubated in the presence of 30 µl of 10 mM DTNB solution with different concentrations of the test compounds. The enzyme reaction was initiated by the addition of 30 µl of 0.8 mM ACTI. The mixtures were incubated for 15 min at 25 °C. […] Control experiments were carried out without inhibitor, and blanks were run without AChE enzyme. All the assays were performed in triplicate. IC50 values were determined using the GraphPad Prism 5.0 (San Diego, CA) and the results were expressed as mean ± SEM.
(§6) 0, 15, 30 and 60 min at 25 °C in sodium phosphate buffer (20 mM, pH 7.4) and DTNB solution (10 mM). […] The reaction was further incubated at 25 °C for a further 15 min and the residual enzyme activities were measured and the bar graphs were constructed. All measurements were carried out in triplicate and are expressed as mean ± SEM.

The target in another data set is T4, equine serum BuChE (Equus caballus, UniProt P81908).
T4 construct: equine serum BuChE was used as enzyme; purchased Sigma-Aldrich; host or cells: equine serum
Description: In vitro BuChE inhibition assay (Ellman's method, equine serum BuChE). The format is biochemical. The settings on record: for IC50: equine serum BuChE, BuTI substrate, mean ± SEM, read-out: BuChE In vitro IC50 (µM) ± SEM. The procedure:
as §5
The BuChE activity was assayed as per the procedure followed for AChE activity except that equine serum BuChE was used as enzyme and butyrylthiocholine iodide (BuTI) was used as substrate.
as §6
(Ellman's reagent forms a yellow product with free thiols.)

The test system of the next data set is mice. In words: Neurotoxicity screening (rotarod test). It counts as in vivo. To be noted: 30 mg/kg i.p. On the procedure: The neurotoxicity screening was undertaken according to the method followed by the National Institute of Health, using their reported procedures[55]^,[56]. Male albino mice (CF-1 strain or Swiss, 18–25 g) were used as experimental animals. The animals were housed in metabolic cages, and allowed free access to food and water. The test compounds were suspended in 0.5% methylcellulose/water mixture or in polyethylene glycol (PEG 200).
Minimal motor impairment was measured in mice by the rotarod test. The mice were trained to stay on an accelerating rotarod that rotates at six revolutions per minute. The rod diameter was 3.2 cm. Trained animals were given i.p. injection of the selected inhibitors at a dose of 30 mg/kg. Neurotoxicity was indicated by the inability of the animal to maintain equilibrium on the rod for at least 1 min in each of the three trials.

The next data set can be described thus: physchem. To be noted: octanol/water.

Where “and” joins values, the source holds several entries; their conditions need not be identical. Equal entries are not always repeated. Where two headings read alike, the source gives them in different places.

T3 sequence (P37136 32-614): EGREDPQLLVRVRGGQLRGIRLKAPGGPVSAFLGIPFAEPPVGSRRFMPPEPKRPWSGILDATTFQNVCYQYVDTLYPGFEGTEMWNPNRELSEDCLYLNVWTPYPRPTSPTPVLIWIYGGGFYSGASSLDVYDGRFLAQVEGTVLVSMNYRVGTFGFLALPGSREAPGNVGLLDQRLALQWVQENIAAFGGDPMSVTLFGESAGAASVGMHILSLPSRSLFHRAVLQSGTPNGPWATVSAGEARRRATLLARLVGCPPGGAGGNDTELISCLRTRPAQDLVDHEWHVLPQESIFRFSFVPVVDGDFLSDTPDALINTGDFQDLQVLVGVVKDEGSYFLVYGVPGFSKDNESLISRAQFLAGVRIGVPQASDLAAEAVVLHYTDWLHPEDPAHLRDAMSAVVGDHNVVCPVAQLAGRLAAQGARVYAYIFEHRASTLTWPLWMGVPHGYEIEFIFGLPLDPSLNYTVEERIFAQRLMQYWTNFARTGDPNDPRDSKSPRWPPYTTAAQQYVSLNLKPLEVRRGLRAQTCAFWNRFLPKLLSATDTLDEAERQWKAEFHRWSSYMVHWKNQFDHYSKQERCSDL
T4 sequence (P81908 whole entry): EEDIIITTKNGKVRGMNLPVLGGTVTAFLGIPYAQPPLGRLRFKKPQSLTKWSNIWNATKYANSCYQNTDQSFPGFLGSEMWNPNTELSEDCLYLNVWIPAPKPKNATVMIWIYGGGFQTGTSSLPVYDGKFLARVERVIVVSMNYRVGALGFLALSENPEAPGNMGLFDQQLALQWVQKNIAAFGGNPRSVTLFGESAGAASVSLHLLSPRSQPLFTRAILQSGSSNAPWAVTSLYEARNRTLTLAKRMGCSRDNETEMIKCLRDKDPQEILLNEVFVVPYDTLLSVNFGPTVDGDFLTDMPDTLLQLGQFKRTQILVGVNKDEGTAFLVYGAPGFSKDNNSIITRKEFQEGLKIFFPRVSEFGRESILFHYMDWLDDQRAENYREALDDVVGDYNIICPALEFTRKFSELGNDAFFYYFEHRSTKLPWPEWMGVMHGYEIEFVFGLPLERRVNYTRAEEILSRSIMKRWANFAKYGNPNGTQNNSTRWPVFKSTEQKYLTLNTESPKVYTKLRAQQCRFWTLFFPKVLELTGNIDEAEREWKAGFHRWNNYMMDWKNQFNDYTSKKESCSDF

As usually defined, the IC50 is the point on the concentration scale where inhibition reaches its midpoint. As to `O=C(N/N=C/c1c(Cl)cccc1Cl)Nc1ccc2c(c1)OCO2` [(ii)], the IC50 in the data set on MAO-A [1] is 4.52 ± 0.032 µM; with MAO-B [2], 0.059 ± 0.002 µM; in the data set with AChE, 0.0087 ± 0.0002 µM.

`O=C(NN=C(c1ccccc1)c1ccccc1)Nc1ccncc1` [(iii)]: the IC50 in the data set on AChE was 0.052 ± 0.01 µM.

On to `O=C(N/N=C(\c1ccccc1)c1ccc(Cl)cc1)Nc1nc2ccc([N+](=O)[O-])cc2s1` [(i)], for which the IC50 with MAO-A [1] is 0.184 ± 0.001 µM; with MAO-B [2], 0.004 ± 0.001 µM.

`COc1ccc2c(c1)[nH]c1c(C)nccc12` [HRM, Harmine]: the IC50 was 3 µM at MAO-A [3] and 7000 µM on MAO-B [4].

The logP is the decadic logarithm of the partition coefficient of the neutral form, usually between octanol and water. Low readings indicate lower lipophilicity, high ones higher lipophilicity. For the molecule `O=C(NN=C(c1ccccc1)c1ccccc1)Nc1ncc([N+](=O)[O-])s1` [Compound 16, 1-(Diphenylmethylene)-4-(5-nitrothiazol-2-yl)semicarbazide], the IC50 at MAO-A [5] was < 100 µM and 89.3 µM; against MAO-B [6] it was 28.3 ± 0.45 µM; on rat brain AChE it was 4.86 ± 0.81 µM; on equine serum BuChE, 1.76 ± 0.035 µM. Further, the “SI (selectivity index for MAO-B)” value at MAO-B [6] amounted to 3.15. The “AChE: fold less active relative to compound 19” value at rat brain AChE (diaryl analogues) is on record as around 3.35 fold. The “BuChE: fold less active relative to compound 17” value on equine serum BuChE (diaryl analogues) was around 73 fold. Moreover, the “Neurotoxicity (animals that exhibit toxicity / animals tested)” value with mice (0.5 h), in the data set with mice (1 h), in the data set on mice (2 h) and in the data set with mice (4 h) was 0/4 throughout. This molecule showed a logP in “physchem” of 3.4.

On to `O=C(N/N=C1/C(=O)Nc2ccccc21)Nc1nc2ccc([N+](=O)[O-])cc2s1` [(v)], for which the IC50 was 5.98 ± 0.534 µM in the data set on MAO-A [1] and 2.15 ± 0.095 µM with MAO-B [2].

Turning to `CNC(=O)N(CCO)/N=C/c1ccc(OCc2ccccc2)cc1` [(iv)], the IC50 in the data set with MAO-A [1] is 90 µM; with MAO-B [2] it was 2.2 µM.

Take `O=C(NN=C(c1ccccc1)c1ccc(Cl)cc1)Nc1ncc([N+](=O)[O-])s1` [Compound 17, 1-((4-Chlorophenyl)(phenyl)methylene)-4-(5-nitrothiazol-2-yl)semicarbazide]: the IC50 worked out at 4872 ± 5.81 µM on MAO-A [5], 28.52 ± 0.079 µM at MAO-B [6], 11.5 ± 0.35 µM at rat brain AChE and 0.024 ± 0.002 µM at equine serum BuChE. The “SI (selectivity index for MAO-B)” value on MAO-B [6] is recorded as 170.83. Moreover, on equine serum BuChE (Lineweaver–Burk plots, BuTI), the “Mode of BuChE inhibition” value was “mixed-type”. Further, at equine serum BuChE (time-dependent inhibition, pre-incubation 0, 15, 30, 60 min), the “Reversibility of BuChE inhibition” value is listed as “reversible”. Further, the logP in the data set “physchem” was determined as 3.6.
